As usually defined, the IC50 is the point on the concentration scale where inhibition reaches its midpoint.

For one assay, the target named is PARP1 (Homo sapiens, UniProt P09874). The assay is described as follows: PARP1 biochemical DELFIA assay (auto-PARylation). To be noted: Table 1.
Chain of PARP1 (P09874 whole entry): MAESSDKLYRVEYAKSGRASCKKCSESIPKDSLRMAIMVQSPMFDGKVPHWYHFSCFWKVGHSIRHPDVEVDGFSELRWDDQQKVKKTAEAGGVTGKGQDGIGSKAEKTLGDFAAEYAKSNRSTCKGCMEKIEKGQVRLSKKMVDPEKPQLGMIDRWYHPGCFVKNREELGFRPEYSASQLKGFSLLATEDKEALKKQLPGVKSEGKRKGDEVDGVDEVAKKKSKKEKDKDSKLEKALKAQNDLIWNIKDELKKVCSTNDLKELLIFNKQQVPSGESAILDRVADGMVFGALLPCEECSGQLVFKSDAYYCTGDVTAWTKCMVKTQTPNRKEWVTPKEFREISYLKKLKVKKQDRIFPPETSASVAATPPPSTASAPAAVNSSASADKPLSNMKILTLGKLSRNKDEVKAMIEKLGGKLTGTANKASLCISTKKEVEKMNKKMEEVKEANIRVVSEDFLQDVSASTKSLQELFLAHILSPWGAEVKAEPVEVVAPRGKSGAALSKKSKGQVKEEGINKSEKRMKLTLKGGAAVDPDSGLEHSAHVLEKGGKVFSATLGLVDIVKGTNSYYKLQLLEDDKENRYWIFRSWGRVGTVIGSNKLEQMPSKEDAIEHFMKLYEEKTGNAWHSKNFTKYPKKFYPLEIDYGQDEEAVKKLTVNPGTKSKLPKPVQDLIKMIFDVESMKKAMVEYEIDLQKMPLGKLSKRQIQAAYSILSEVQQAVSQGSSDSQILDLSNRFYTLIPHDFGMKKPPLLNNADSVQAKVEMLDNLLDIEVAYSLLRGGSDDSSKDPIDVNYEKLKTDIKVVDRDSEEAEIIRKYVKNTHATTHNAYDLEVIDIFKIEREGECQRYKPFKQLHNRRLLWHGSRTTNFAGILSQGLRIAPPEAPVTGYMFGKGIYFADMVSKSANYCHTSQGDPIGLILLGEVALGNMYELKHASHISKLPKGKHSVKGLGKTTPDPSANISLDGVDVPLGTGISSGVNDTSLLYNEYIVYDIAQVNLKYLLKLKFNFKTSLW
Method: Prior to assay, wells were washed 3×5 min in coating wash buffer.
% data was fitted to a non-linear regression equation (log inhibitor vs response-variable slope 4-parameters) to obtain IC50 values.
Compound `O=C(CN1CCN(c2ncc(C(F)(F)F)cn2)CC1)N1CCCC1c1cc(C(F)(F)F)c(=O)[nH]n1` (single isomer, unassigned) [Compound 32b] came in with an IC50 of more than 10 µM.

The compound `O=C(CCN1CCCC(c2c[nH]c(=O)c(C(F)(F)F)c2)C1)N1CCN(c2ncc(C(F)(F)F)cn2)CC1` (single isomer, unassigned) [Compound 25b] gave an IC50 of 0.01 to 0.1 µM.

On to `O=C(CCN1CCCC(c2cc(C(F)(F)F)c(=O)[nH]n2)C1)N1CCN(c2ccc(Cl)cn2)CC1` (single isomer, unassigned) [Compound 15b], for which the IC50 lay within 0.1 to 1 µM.

Regarding `O=C(CCN1CCC(c2cc(C(F)(F)F)c(=O)[nH]n2)C1)N1CCN(c2ncc(C(F)(F)F)cn2)CC1` (single isomer, unassigned) [Compound 7a], the IC50 lay within 0.1 to 1 µM.

Take `O=C(CCN1CCCC(c2cc(C(F)(F)F)c(=O)[nH]n2)C1)N1CCN(c2ncc(OC(F)(F)F)cn2)CC1` (single isomer, unassigned) [Compound 13a]: the IC50 was 0.1 to 1 µM.

Turning to `CCc1cc(C2CCCN(CCC(=O)N3CCN(c4ncc(C(F)(F)F)cn4)CC3)C2)c[nH]c1=O` (racemic) [Compound 22rac, 3-ethyl-5-(1-(3-oxo-3-(4-(5-(trifluoromethyl)pyrimidin-2-yl)piperazin-1-yl)propyl)piperidin-3-yl)pyridin-2(1H)-one], the IC50 lay in the range of 0.1 to 1 µM.

`O=C(CCC1CCN(c2ncc(C(F)(F)F)cn2)CC1)N1CCCC(c2cc(C(F)(F)F)c(=O)[nH]n2)C1` (single isomer, unassigned) [Compound 4a]: the IC50 was 0.1 to 1 µM.

The same assay, now with this note: Table 1A.
In turn, `O=C(CN1Cc2ccccc2C1c1cc(C(F)(F)F)c(=O)[nH]n1)N1CCN(c2ncc(C(F)(F)F)cn2)CC1` (single isomer, unassigned) [Compound 104b, 6-(2-(2-oxo-2-(4-(5-(trifluoromethyl)pyrimidin-2-yl)piperazin-1-yl)ethyl)isoindolin-1-yl)-4-(trifluoromethyl)pyridazin-3(2H)-one] had a 50% inhibitory concentration (IC50) of 1 to 10 µM.

Compound `N#Cc1ccc2nc(N3CCN(C(=O)CN4CCCC4c4cc(C#N)c(=O)[nH]n4)CC3)oc2c1` (single isomer, unassigned) [Compound 145b] came in with a concentration for half-maximal inhibition (IC50) of more than 10 µM.

As for `CNC(=O)c1ccc(N2CCN(C(=O)CN3CCCC3c3cc(C(F)(F)F)c(=O)[nH]n3)CC2)cn1` (single isomer, unassigned) [Compound 37b], the half-maximal inhibitory concentration (IC50) was in the range of 1 to 10 µM.

Compound `O=C(CN1CCCC1c1cc(C(F)(F)F)c(=O)[nH]n1)N1CCN(c2ccc(C(F)F)cn2)CC1` (single isomer, unassigned) [Compound 126b] had an IC50 of 1 to 10 µM.

In the case of `O=C(CN1CCCC1c1cc(C(F)(F)F)c(=O)[nH]n1)N1CCN(c2nc3cc(Cl)ccc3o2)CC1` (single isomer, unassigned) [Compound 99b], the IC50 was in the range of 1 to 10 µM.

In turn, `CNC(=O)c1ccc(N2CCN(C(=O)CN3CCCC3c3cc(C(F)(F)F)c(=O)[nH]n3)CC2)nc1` (single isomer, unassigned) [Compound 55b] returned an IC50 of 0.1 to 1 µM.

Turning to `O=C(CN1CCCC1c1cc(C(F)(F)F)c(=O)[nH]n1)N1CCN(c2ncc(OC(F)F)cn2)CC1` (single isomer, unassigned) [Compound 118a], the IC50 is not above 0.01 µM.

With `O=C(CN1CCCC1c1cc(C(F)(F)F)c(=O)[nH]n1)N1CCN(c2nc3ccc(Cl)cc3o2)CC1` (single isomer, unassigned) [Compound 85b], the IC50 is 1 to 10 µM.

For `O=C(CN1CCCC1c1cc(C(F)(F)F)c(=O)[nH]n1)N1CCN(c2ncc(OC(F)(F)F)cn2)CC1` (single isomer, unassigned) [Compound 72b], the IC50 is not above 0.01 µM.

The compound `O=C(CN1CCCC1c1cc(C(F)(F)F)c(=O)[nH]n1)N1CCC(c2ncc(C(F)(F)F)cn2)CC1` (single isomer, unassigned) [Compound 70a] yielded a 50% inhibitory concentration (IC50) of 1 to 10 µM.

For `N#Cc1cc(C2CCCN2CC(=O)N2CCN(c3nc4cc(Cl)ccc4o3)CC2)n[nH]c1=O` (single isomer, unassigned) [Compound 121a], the IC50 was 0.1 to 1 µM.

Turning to `N#Cc1cc(C2CCCN2CC(=O)N2CCN(c3ncc(C(F)(F)F)cn3)CC2)n[nH]c1=O` (single isomer, unassigned) [Compound 98a, 3-oxo-6-(1-(2-oxo-2-(4-(5-(trifluoromethyl)pyrimidin-2-yl)piperazin-1-yl)ethyl)pyrrolidin-2-yl)-2,3-dihydropyridazine-4-carbonitrile], the half-maximal inhibitory concentration (IC50) was 0.1 to 1 µM.

Consider `CCc1[nH]c(=O)c(C(F)(F)F)cc1C1CCCN1CC(=O)N1CCN(c2ncc(C(F)(F)F)cn2)CC1` (single isomer, unassigned) [Compound 105b], for which the IC50 was in the range of 1 to 10 µM.

For `COC1CC(c2cc(C(F)(F)F)c(=O)[nH]n2)N(CC(=O)N2CCN(c3ncc(C(F)(F)F)cn3)CC2)C1` (single isomer, unassigned) [Compound 138trans1, 6-(4-methoxy-1-(2-oxo-2-(4-(5-(trifluoromethyl)pyrimidin-2-yl)piperazin-1-yl)ethyl)pyrrolidin-2-yl)-4-(trifluoromethyl)pyridazin-3(2H)-one], the half-maximal inhibitory concentration (IC50) fell in the range of 0.1 to 1 µM.

In turn, `O=C(CN1CCCC1c1cc(C(F)(F)F)c(=O)[nH]n1)N1CCN(c2ncc(F)cc2F)CC1` (single isomer, unassigned) [Compound 83b] yielded an IC50 of more than 10 µM.

Regarding `N#Cc1cnc(N2CCN(C(=O)CN3CCCC3c3cc(C(F)(F)F)c(=O)[nH]n3)CC2)nc1` (single isomer, unassigned) [Compound 36a], the IC50 lay within 0.01 to 0.1 µM.

Consider `O=C(CN1CCCC1c1cc(C(F)(F)F)c(=O)[nH]n1)N1CCN(c2ncc(Cl)cn2)CC1` (single isomer, unassigned) [Compound 35b], for which the IC50 was in the range of 1 to 10 µM.

Take `O=C(CN1CCC(c2n[nH]c(=O)c3ccccc23)CC1)N1CCN(c2ncc(C(F)(F)F)cn2)CC1` [Compound 51]: the IC50 lay in the range of 0.01 to 0.1 µM.

Compound `CCc1cc(C2CCCN2CC(=O)N2CCN(c3ncc(C(F)(F)F)cn3)CC2)n[nH]c1=O` (single isomer, unassigned) [Compound 40a] showed a half-inhibitory concentration (IC50) of 0.01 to 0.1 µM.

The compound `COC1CC(c2cc(C(F)(F)F)c(=O)[nH]n2)N(CC(=O)N2CCN(c3ncc(C(F)(F)F)cn3)CC2)C1` (single isomer, unassigned) [Compound 138cis1, 6-(4-methoxy-1-(2-oxo-2-(4-(5-(trifluoromethyl)pyrimidin-2-yl)piperazin-1-yl)ethyl)pyrrolidin-2-yl)-4-(trifluoromethyl)pyridazin-3(2H)-one] came in with an IC50 of 0.01 to 0.1 µM.

Turning to `CN(c1ncc(C(F)(F)F)cn1)C1CCN(C(=O)CN2CCCC2c2cc(C(F)(F)F)c(=O)[nH]n2)CC1` (single isomer, unassigned) [Compound 107b], the IC50 was more than 10 µM.

`O=C(CN1CCCC1c1cc(C(F)(F)F)c(=O)[nH]n1)C1CCN(c2ncc(C(F)(F)F)cn2)CC1` (single isomer, unassigned) [Compound 75b]: the IC50 was more than 10 µM.

As to `O=C(CN1CCOCC1c1cc(C(F)(F)F)c(=O)[nH]n1)N1CCN(c2ncc(C(F)(F)F)cn2)CC1` (single isomer, unassigned) [Compound 88b], the IC50 lay in the range of 0.1 to 1 µM.

As to `CNC(=O)c1ccc(N2CCN(C(=O)CN3CCCC3c3cc(C(F)(F)F)c(=O)[nH]n3)CC2)nc1` (single isomer, unassigned) [Compound 55a], the IC50 fell in the range of 1 to 10 µM.

Regarding `O=C(CN1CCCC1c1cc(C(F)(F)F)c(=O)[nH]n1)N1CCN(c2ccc(C3CC3)cn2)CC1` (single isomer, unassigned) [Compound 79a], the IC50 is 0.01 to 0.1 µM.

`N#Cc1cc(C2CCCN2CC(=O)N2CC(Nc3ncc(C(F)(F)F)cn3)C2)n[nH]c1=O` (single isomer, unassigned) [Compound 123a] gave an IC50 of 0.01 to 0.1 µM.

Take `O=C(CN1CCCC1c1c[nH]c(=O)c(Cl)c1)N1CCN(c2ncc(C(F)(F)F)cn2)CC1` (single isomer, unassigned) [Compound 78a, 3-chloro-5-(1-(2-oxo-2-(4-(5-(trifluoromethyl)pyrimidin-2-yl)piperazin-1-yl)ethyl)pyrrolidin-2-yl)pyridin-2(1H)-one]: the IC50 was in the range of 0.1 to 1 µM.

With `CNC(=O)c1ccc(N2CCN(C(=O)CN3CCC3c3cc(C(F)(F)F)c(=O)[nH]n3)CC2)cn1` (racemic) [Compound 53rac], the IC50 lay within 0.1 to 1 µM.

Regarding `CCc1[nH]c(=O)c(C(F)(F)F)cc1C1CCCN1CC(=O)N1CCN(c2ncc(C(F)(F)F)cn2)CC1` (single isomer, unassigned) [Compound 105a], the IC50 fell in the range of 1 to 10 µM.

Compound `O=C(CN1CCCC1c1n[nH]c(=O)c2ccccc12)N1CCN(c2ncc(C(F)(F)F)cn2)CC1` (single isomer, unassigned) [Compound 38a, 4-(1-(2-oxo-2-(4-(5-(trifluoromethyl)pyrimidin-2-yl)piperazin-1-yl)ethyl)pyrrolidin-2-yl)phthalazin-1(2H)-one] showed an IC50 of 0.1 to 1 µM.

`O=C(CN1CCCC1c1cc(C(F)(F)F)c(=O)[nH]n1)NC1CCN(c2ncc(C(F)(F)F)cn2)CC1` (single isomer, unassigned) [Compound 33b] registered an IC50 of 0.1 to 1 µM.

As for `O=C(CN1CC(F)(F)C[C@@H]1c1cc(C(F)(F)F)c(=O)[nH]n1)N1CCN(c2ncc(C(F)(F)F)cn2)CC1` [Compound 91a, (R)-6-(4,4-difluoro-1-(2-oxo-2-(4-(5-(trifluoromethyl)pyrimidin-2-yl)piperazin-1-yl)ethyl)pyrrolidin-2-yl)-4-(trifluoromethyl)pyridazin-3(2H)-one], the IC50 lay in the range of 0.1 to 1 µM.

Compound `O=C(CN1CCCC1c1cc(C(F)(F)F)c(=O)[nH]n1)N1CCN(c2ccc(C(F)F)cn2)CC1` (single isomer, unassigned) [Compound 126a] showed an IC50 of 0.01 to 0.1 µM.

Another assay relates to PARP1 over PARP2.
Test: not given
To be noted: PARP1 inhibitor and trapper; cited from earlier work.
As for `CCc1cc2ncc(CN3CCN(c4ccc(C(=O)NC)nc4)CC3)cc2[nH]c1=O` [AZD5305], the “selectivity over PARP2” value is given as 500 fold.

The record behind these values is patent US20260193238A1, “PHARMACEUTICAL COMPOUNDS AS PARP7 AND/OR PARP1 INHIBITORS” (Duke Street Bio Limited, priority 2022, published 2026).
